Measured values as given in US7560454B2, “Condensed azepines as vasopressin agonists” (Vantia Limited, priority 2000, dated 2009).

Test system: Brattleboro rat
Experiment: inhibition of urine output in Brattleboro rats
Assay type: in vivo
Settings: 1 mg/kg p.o. in methylcellulose, vs control animals
Procedure: The Brattleboro rat is a recognised model for vasopressin deficiency (for a review see F D Grant, “Genetic models of vasopressin deficiency”, Exp. Physiol. 85, 203S-209S, 2000). […] Compounds of the invention were administered to Brattleboro rats (0.1-10 mg/kg p.o. in methylcellulose. Urine was collected hourly and volumes were compared with control animals. Animals had free access to food and water throughout the experiment. Representative results are given in the Table. Results for Desmopressin are given for comparison.

## Cc1cc(C(=O)N2CCCCc3ccccc32)ccc1CNC(=O)N1CCC[C@H]1C(=O)N(C)C [Example 1, 1-(2-Methyl-4-(2,3,4,5-tetrahydro-1-benzazepin-1-ylcarbonyl)benzylcarbamoyl)-L-proline-N,N-dimethylamide]
  % inhibition of urine output (at 1 hour): 82%
